# Patent US20240415918A1, “Polypeptide and its use as a CCK receptor agonist/antagonist” (Centre for Regenerative Medicine & Health, Hong Kong …, priority 2021, published 2024)
# Where a SMILES comes first, the peptide text is derived from it. [ ]: non-standard residue; d: D form. dTrp(2-Me) = Cc1[nH]c2ccccc2c1C[C@@H](N)C(=O)O; Phe(3-Br) = N[C@@H](Cc1cccc(Br)c1)C(=O)O; dAoc(2) = CCCCCC[C@@H](N)C(=O)O; Aad = N[C@@H](CCCC(=O)O)C(=O)O; Ahp(2) = CCCCC[C@H](N)C(=O)O; Nle = CCCC[C@H](N)C(=O)O
# How the values were obtained:
# [1] = target: T1, CCK-B receptors (CHO-CCK) (Homo sapiens, UniProt P32239); assay: Calcium flux (Fluo-8) agonist test on CHO-CCK model cells; assay type: cell-based; conditions: for EC50: CHO-CCK cells; for Agonistic Activity (%) at 10 μM: compound at 10 μM, percentage of signal of 20 nM CCK8 alone
# T1 construct: expressed in transfected cells; host or cells: CHO (CHO-CCK model cells)
# T1 sequence (P32239 1-447): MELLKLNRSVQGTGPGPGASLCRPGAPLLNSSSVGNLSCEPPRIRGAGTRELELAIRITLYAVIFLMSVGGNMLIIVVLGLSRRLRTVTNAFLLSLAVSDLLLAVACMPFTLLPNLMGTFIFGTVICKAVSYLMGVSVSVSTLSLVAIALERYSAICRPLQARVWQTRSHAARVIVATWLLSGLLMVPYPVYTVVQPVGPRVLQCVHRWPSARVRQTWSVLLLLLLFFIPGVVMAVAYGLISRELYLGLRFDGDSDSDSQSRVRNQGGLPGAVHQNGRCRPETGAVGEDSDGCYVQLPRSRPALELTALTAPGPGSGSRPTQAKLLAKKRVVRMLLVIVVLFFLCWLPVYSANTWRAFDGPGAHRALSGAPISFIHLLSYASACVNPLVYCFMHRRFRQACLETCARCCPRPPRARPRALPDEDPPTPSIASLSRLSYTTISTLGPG
# In short: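 Agonist-mode Fluo-8 calcium flux read on CHO-CCK cells after dye loading 30 min at 37 °C plus 30 min at room temperature.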
# [2] = target: T1, CCK-B receptors (CHO-CCK); assay: Calcium flux (Fluo-8) antagonist test on CHO-CCK model cells in presence of CCK8; assay type: cell-based
# [3] = Fluo-8 calcium flux, 100% control = 20 nM CCK8
# [4] = in presence of 10 nM CCK8, bound in μM
# [5] = compound alone, 100% = 20 nM CCK8
# [6] = compound together with 10 nM CCK8
# [7] = Fluo-8 calcium flux, bound in μM
Structure (SMILES),"EC50 [1, 3] [µM]",EC50 ([2]; in presence of 10 nM CCK8) [µM],"EC50 [1, 5] [µM]","EC50 [2, 6] [µM]",further results
"CCCC[C@H](NC(=O)[C@@H](Cc1c(C)[nH]c2ccccc12)NC(C)=O)C(=O)N[C@@H](CC(=O)O)C(=O)N[C@@H](Cc1cccc(Br)c1)C(N)=O [HT-231, Ac-(2-Me-Trp)-Nle-Asp-Phe(3-Br)-NH2]",0.252,1.43,–,–,–
"CCCCC[C@H](NC(=O)[C@@H](Cc1c[nH]c2ccccc12)NC(C)=O)C(=O)N[C@@H](CC(=O)O)C(=O)N[C@@H](Cc1cccc(Br)c1)C(N)=O [HT-257, Ac-D-Trp-Pa-Asp-Phe(3-Br)-NH2] (Ac-[dW][Ahp(2)]D[Phe(3-Br)]-NH2)",0.00334,0.132,–,–,–
"CCCCCC[C@@H](NC(C)=O)C(=O)N[C@@H](CCCC)C(=O)N[C@@H](CCC(=O)O)C(=O)N[C@@H](Cc1cccc(Br)c1)C(N)=O [HT-263, Ac-Oa-Nle-Glu-Phe(3-Br)-NH2] (Ac-[dAoc(2)][Nle]E[Phe(3-Br)]-NH2)",64.5,–,–,–,"EC50 [2, 4]: > 10 µM"
"CSCC[C@H](NC(=O)[C@H](N)Cc1c[nH]c2ccccc12)C(=O)N[C@@H](CC(=O)O)C(=O)N[C@@H](Cc1ccc([N+](=O)[O-])cc1)C(N)=O [HT-33, D-Trp-Met-Asp-Phe(4-NO2)-NH2]",–,–,0.241,1.2,Agonistic Activity (%) at 10 μM [1]: 71.20%
"CC(=O)N[C@H](Cc1c[nH]c2ccccc12)C(=O)N[C@@H](CCC(N)=O)C(=O)N[C@@H](CC(=O)O)C(=O)N[C@@H](Cc1cccc(Br)c1)C(N)=O [HT-185, Ac-D-Trp-Gln-Asp-Phe(3-Br)-NH2]",–,–,3.82,12,–
"CCCC[C@H](NC(=O)[C@@H](Cc1c[nH]c2ccccc12)N(C)C(=O)CNC(=O)OCC1c2ccccc2-c2ccccc21)C(=O)N[C@@H](CC(=O)O)C(=O)N[C@@H](Cc1cccc(Br)c1)C(N)=O [HT-251, Fmoc-Gly-(N-Me-Trp)-Nle-Asp Phe(3-Br)-NH2]",0.00592,1.61,–,–,–
"CSCC[C@H](NC(=O)[C@H](Cc1ccc(O)cc1)NC(=O)[C@H](CC(=O)O)NC(C)=O)C(=O)NCC(N)=O [HT-206, Ac-Asp-Tyr-Met-Gly-NH2] (Ac-DYMG-NH2)",–,–,–,–,"EC50 [1, 7]: > 10 µM; EC50 [2, 4]: > 10 µM"
"CCCC[C@H](NC(=O)[C@@H](Cc1cn(C)c2ccccc12)NC(C)=O)C(=O)N[C@@H](CC(=O)O)C(=O)N[C@@H](Cc1cccc(Br)c1)C(N)=O [HT-230, Ac-(1-Me-Trp)-Nle-Asp-Phe(3-Br)-NH2]",0.00192,0.0575,–,–,–
"CSCC[C@H](NC(=O)[C@H](Cc1c[nH]c2ccccc12)NC(=O)CNC(C)=O)C(=O)N[C@@H](CC(=O)O)C(N)=O [HT-211, Ac-Gly-Trp-Met-Asp-NH2] (Ac-GWMD-NH2)",–,–,–,–,"EC50 [1, 7]: > 10 µM; EC50 [2, 4]: > 10 µM"
"CSCC[C@H](NC(=O)[C@H](N)Cc1c[nH]c2ccccc12)C(=O)N[C@@H](CC(=O)O)C(=O)N[C@@H](Cc1ccc(F)cc1)C(N)=O [HT-36, D-Trp-Met-Asp-Phe(4-F)-NH2]",–,–,0.0888,0.876,Agonistic Activity (%) at 10 μM [1]: −3.55%
"CSCC[C@H](NC(=O)[C@@H](Cc1c[nH]c2ccccc12)NC(C)=O)C(=O)N[C@@H](CC(C)C)C(=O)N[C@@H](Cc1cccc(Br)c1)C(N)=O [HT-190, Ac-D-Trp-Met-Leu-Phe(3-Br)-NH2] (Ac-[dW]ML[Phe(3-Br)]-NH2)",–,–,4.75,6.16,–
"CCCC[C@H](NC(=O)[C@@H](Cc1c(C)[nH]c2ccccc12)NC(C)=O)C(=O)N[C@@H](CCC(=O)O)C(=O)N[C@@H](Cc1cccc(Br)c1)C(N)=O [HT-244, Ac-(2-Me-Trp)-Nle-Glu-Phe(3-Br)-NH2]",7.32,1.36,–,–,–
"CS(=O)(=O)CC[C@H](NC(=O)[C@H](N)Cc1c[nH]c2ccccc12)C(=O)N[C@@H](CC(=O)O)C(=O)N[C@@H](Cc1cccc(F)c1)C(N)=O [HT-61, D-Trp-Met(O2)-Asp-Phe(3-F)-NH2]",–,–,–,–,"Agonistic Activity (%) at 10 μM [1]: 36.66%; EC50 ([2]; compound together with 10 nM CCK8, bound in μM): > 10 µM"
"CSCC[C@H](NC(=O)[C@H](N)Cc1c[nH]c2ccccc12)C(=O)N[C@@H](CC(=O)O)C(=O)N[C@@H](Cc1cc(Cl)cc(Cl)c1)C(N)=O [HT-38, D-Trp-Met-Asp-Phe(3,5-DiCl)-NH2]",–,–,0.0493,0.0997,Agonistic Activity (%) at 10 μM [1]: 122.74%
"CCCC[C@H](NC(=O)[C@@H](Cc1c(C)[nH]c2ccccc12)NC(C)=O)C(=O)N[C@@H](CCCC(=O)O)C(=O)N[C@@H](Cc1cccc(Br)c1)C(N)=O [HT-262, Ac-(2-Me-Trp)-Nle-Aa-Phe(3 Br)-NH2] (Ac-[dTrp(2-Me)][Nle][Aad][Phe(3-Br)]-NH2)",1.18,–,–,–,"EC50 [2, 4]: > 10 µM"
